Experimental data from patent US9687480B2, “Chiral 1-(4-methylphenylmethyl)-5-oxo-{N-[(3-t-butoxycarbonyl-aminomethyl)]-piperidin-1-yl)-pyrrolidine as inhibitors of collagen induced platelet activation and adhesion” (Council of Scientific & Industrial Research, priority 2011, dated 2017).
Where “and” joins values, the source holds several entries; their conditions need not be identical. Equal values may be shown once. Read-outs that look alike come from different tables or passages of the source.

How the values were obtained:
mice [1] = test: Collagen-epinephrine induced pulmonary thromboembolism in mice; assay type: in vivo; conditions: Table 2 summary; how long protection lasts
Source text: To assess the antithrombotic efficacy of Compounds, mice were divided into vehicle, aspirin and Compounds treated groups, and each group included ten animals. […] Results have been reported as percentage protection, which represents protection against collagen and epinephrine induced thrombosis and expressed as: Percent Protection=(1-([…]-number of animals paralyzed/dead in test compound-treated group; Pcontrol-number of animals paralyzed/dead in vehicle treated group. Collagen Epinephrine Induced Pulmonary Thromboembolism (FIG. 1): […]

[2] = tested on: human platelet rich plasma (TRAP induced aggregation); test: TRAP (SFLLRN) induced platelet aggregation, human platelet rich plasma (in vitro); assay type: cell-based; conditions: for IC50: human PRP, 25 μM TRAP, read-out: TRAP induced platelet aggregation studies (Human) IC50; for effect on TRAP induced platelet aggregation: up to 300 μM
Experimental: (§1) The reaction was allowed to proceed for at least 5 min, and the extent of aggregation was expressed in light-transmission units (Ivandic B T, Schlick P, Starltz P, Kurz K, Katas H A, Giannitsis E. Determination of clopidogrel resistance by whole blood platelet aggregometry and inhibitors of the P2Y12 receptor. Clinical Chemistry 2006: 52:383-88).
(§2) The percentage of aggregation was calculated by using following formula: Percent Aggregation=A/B×100 Where, A is the number of division traversed by the label on chart in the presence of Inducer & B is the total number of divisions (80). Platelet Aggregation Studies (FIG. 3) a) Platelet Aggregation (Human, In Vitro) (FIG. 3a (i) (ii) (iii))

[3] = tested on: human platelet rich plasma (collagen induced aggregation); test: Collagen induced platelet aggregation, human platelet rich plasma (in vitro); assay type: cell-based; conditions: for IC50: human PRP, collagen 2 μg/ml, read-out: Collagen induced platelet aggregation studies (Human) IC50; for activity against collagen induced aggregation: in vitro, human platelet rich plasma
Experimental: as §1, §2

mice [4] = test: Tail bleeding time in mice; assay type: in vivo; conditions: for Bleeding Time in mice: Table 2 summary; for prolongation in bleeding time: 30 μM/kg, 1 hr p.o. dosing
Experimental: Bleeding time in mice was evaluated by the method of Dejana et al, (Dejana E, Callioni A, Quintana A, Gaetano G. Bleeding time in laboratory animals. II—A comparison of different assay conditions in rats. […] The time elapsed from the tip incision to the stoppage of bleeding was determined as the bleeding time. The preferred compounds, aspirin (30 mg/kg) or vehicle was given orally 60 min prior to the tail incision in a group of 5 mice each.

hamster platelets = test: Platelet adhesion on collagen coated surface (hyperlipidemic hamster model, ex vivo); assay type: in vivo, hamsters; conditions: for Platelet adhesion hyperlipidemic hamsters: Table 2 summary; for platelet adhesion over collagen coated surface: hyperlipidemic hamsters, ex vivo
Experimental: Platelet adhesion to collagen was measured in polystyrene 96-well micro titer plates. Micro titer plates were coated with insoluble equine tendon native fibrillar type I collagen (Chrono-Log Corp. Havertown, USA), 2 μg/well in 5 mM acetic acid (Tandon N N, Ockenhouse C F, Greco […]. Adhesive functions of platelet lacking GPIV (CD36). Blood 1991; 78: 2809-13) overnight at 4° C. The unoccupied protein binding sites on the wells were blocked with 0.5% BSA in Tyrode's-HEPES buffer (136.7 mM NaCl, 13.8 mM NaHCO3. 0.36 mM NaH2PO4.H2O, 2.6 mM KCl, 1.0 mM MgCl2.6H2O, 5.5 mM glucose, pH 7.4) at room temperature for 1 hour, and then rinsed once with PBS. Washed platelets were suspended in the Tyrode's-HEPES buffer and added to the wells (2×10^7 cells/well) for 1 h at room temperature. After three washes with PBS, the number of adherent platelets was evaluated colorimetrically (Bellavite P., Andrioli G., Gizzo P., Arigliano P., Chirumbolo […] colorimetric method for the measurement of platelet adhesion in microtiter plates. Anal. Blochem. 1994; 216:444-450). Briefly, 150 μl of a 0.1 M citrate buffer (pH 5.4), containing 5 mM p-nitrophenyl phosphate and 0.1% TritonX-100 was added to the wells after washing. After incubation for 30 minutes at 25° C. in the absence of ambient light, colour was developed by the addition of 100 μl of 2N NaOH and the absorbance at 405 nm was read using a microplate reader (Powerware XS, Biotek, USA).

rats = test: Arterio-venous shunt model in rats; assay type: in vivo; conditions: for Arterio-venous shunt model in rat: Table 2 summary; for thrombus weight: rats, given 1 hr prior to shunt
Source text: Rats were grouped into control, aspirin and test compound group, each group having six animals. Rats were anesthetized with urethane (1.25 g/kg). Cervical incision was made and carotid artery and its contra lateral jugular vein was exposed to prepare a shunt by using polyethylene tubes. Two 7 cm siliconized polyethylene tubes (0.5/1.0 mm inner/outer diameter) were linked to a central 6 cm silicon tube (1.0/1.5 mm, inner/outer diameter) containing a 5 cm silk thread (pre-weighed) and were filled with saline. The shunt assembly was cannulated between the jugular vein and contra-lateral carotid artery and blood was allowed to circulate through the shunt. Blood flow through the shunt was maintained for 10 minutes, subsequently the central part of the shunt was removed and silk thread having thrombus deposit was taken out and weighed. The thrombus adhered/deposited on thread was calculated by subtracting the wet weight of the silk thread. The standard drugs and test compounds were given 1 hr prior to the establishment of arterio-venous shunt (Tohti I, Tursun M, Umar A, Turdi S, Imin H, Moore N. Aqueous extracts of Ocimum basilicum L. (sweet basil) decrease platelet aggregation induced by ADP and thrombin in vitro and rats arterio-venous shunt thrombosis in vivo. Thrombosis Res. 2006; 118: 733-739).

[5] = tested on: human platelet rich plasma (ADP induced aggregation); test: ADP induced platelet aggregation, human platelet rich plasma (in vitro); assay type: cell-based
Experimental: as §1, §2

in vivo = assay type: in vivo, rabbits; conditions: for AUC / Cmax / MRT / Tmax: 20 mg/kg
Experimental: In-vivo pharmacokinetic parameters were generated in male NZ rabbits at a dose of 20 mg/kg by oral route of administration. The blood samples were drawn at 0.25, 0.5, 0.75, 1, 1.5, 2, 4, 6, 8, 10, 12, 18 and 24 hr post dose, processed and analyzed by Liquid Chromatography-Mass Spectrometry (LC-MS). Plasma concentration at different time points were plotted to give Plasma Concentration Time Profile and the data was fitted non-compartmentally using Win NonLin 5.1 version software and the estimates of pharmacokinetic parameters were derived with SD mean values. Maximum plasma concentration (Cmax), time to achieve maximum plasma concentration (tmax).

hyperlipidemic hamsters = test: FeCl3 induced thrombosis in hyperlipidemic hamsters; assay type: in vivo; conditions: for time to occlusion (TTO): HCHF fed hamsters
Experimental: HCHF treated hamsters were anesthetized by urethane (1.25 g/kg, i.p.). The carotid artery was carefully dissected and a pulsed Doppler Probe (DBF-120A-CPx, CBI-8000, Crystal Biotech. USA) was placed around it to record the blood flow velocity and potency of the blood vessels. The carotid artery thrombosis was induced by FeCl3 as follows: a square (1×1 mm) of Whatman Chromatography paper was immersed in 30% FeCl3 solution for 5 min and placed on the carotid artery as described earlier (Kurz K D, Main B W, Sandusky G E. Rat model of arterial thrombosis induced by ferric chloride. Thromb Res 1990; 60(4):269-80). Thrombosis was monitored as the reduction in carotid artery blood flow. The time at which the blood-flow velocity was decreased to zero was recorded as the total of occlusion of the vessel.

[6] = male, NZ, rabbit, in vivo, as stated in the summary text, read-out: tmax

Molecule	Collagen-epinephrine induced thrombosis in mice (duration of effect) (mice [1])	Bleeding Time in mice (mice [4]) [fold]	Platelet adhesion hyperlipidemic hamsters (hamster platelets)	Arterio-venous shunt model in rat (rats)	activity against collagen induced aggregation [3]	prolongation in bleeding time (mice [4])	effect on ADP induced platelet aggregation ([5]; concentration not given)	AUC (in vivo; male NZ rabbits, oral) [ng·h/mL]	Cmax (in vivo; male NZ rabbits, oral)	MRT (in vivo; male NZ rabbits, oral) [h]	Tmax (in vivo; male NZ rabbits, oral) [min]	platelet adhesion over collagen coated surface (hamster platelets)	time to occlusion (TTO) (hyperlipidemic hamsters)	IC50 ([2]; Platelet) [µM]	effect on TRAP induced platelet aggregation [2]	IC50 ([3]; Platelet) [µM]	effect on ADP induced platelet aggregation ([5]; up to 300 μM)	Tmax (in vivo; [6]) [min]	thrombus weight (rats)	also measured
1-(4-methylphenylmethyl)-5-oxo-{N-[(3-t-butoxycarbonyl-aminomethyl)]-piperidin-1-yl}-pyrrolidine-2-carboxamides [Compound 1]	Up to 18 hrs	2	Effective	Protective																IC50 [2]: > 100 µM; IC50 [3]: ~10 µM
Cc1ccc(CN2C(=O)CC[C@H]2C(=O)N2CCCC(CNC(=O)OC(C)(C)C)C2)cc1 (some centres unmarked) [Compound 1, 1-(4-methylphenylmethyl)-5-oxo-{N-[(3-t-butoxycarbonyl-aminomethyl)]-piperidin-1-yl}-pyrrolidine-2-carboxamides]					active	approximately 1.5 fold	no effect	6524.15	947.02 ± 237.4 ng/mL	16.20	40.8	significant reduction	remained ineffective							inhibition of TRAP induced platelet aggregation ([2]; at 100 μM): significant inhibition
Cc1ccc(CN2C(=O)CC[C@H]2C(=O)N2CCC[C@@H](CNC(=O)OC(C)(C)C)C2)cc1 [Compound 6]	>24 h	1.5	Effective	Protective	active	approximately 1.5 fold	no effect	874.8	149.49 ± 53.12 ng/mL	5.25	45	significant inhibition	significantly increased	> 500	did not exhibit any effect	~10	did not exhibit any effect	45 ± 8.64	reducing the thrombus weight significantly	prolonged systemic exposure (in vivo; as stated in the summary text): more than 24 hrs; Ferric chloride induced thrombosis in hyperlipidemic hamsters (hyperlipidemic hamsters; Table 2 summary): Protective
Cc1ccc(CN2C(=O)CC[C@H]2C(=O)N2CCC[C@H](CNC(=O)OC(C)(C)C)C2)cc1 [Compound 7, (2S)-1-(4-methylphenylmethyl)-5-oxo-(3R)-{N-[(3-t-butoxycarbonyl-aminomethyl)]-piperidin-1-yl}-pyrrolidine-2-carboxamide]	<12 h	1.5	No effect	Protective	active	approximately 1.5 fold	no effect	1112.81	112.81 ± 169.77 ng/mL and 112.40 ng/mL	16.20	520	no effect	remained ineffective	> 500	did not exhibit any effect	> 10	did not exhibit any effect	520 ± 39.6	reducing the thrombus weight significantly	
